Measurements: paper PMC3609026 (Cancer, 2011)
Where two headings read alike, the source gives them in different places. Each block holds one compound with its values, some of them ahead of it.

Key:
[1] = format: in vivo, human; details: through cycles 1 and 2, combination treatment
[2] = Pharmacokinetics: everolimus blood levels, LC/MS, noncompartmental analysis; format: in vivo, human; details: through cycles 1 and 2, combination treatment
[3] = tested on: advanced non-clear cell RCC; details: single agent, 23 patients with advanced non-clear cell RCC; cited from earlier work

accumulation [1]: No unexpected accumulation
SMILES: CCNCCNC(=O)c1c(C)[nH]c(/C=C2\C(=O)Nc3ccc(F)cc32)c1C [N-desethyl sunitinib]

accumulation [2]: No unexpected accumulation
SMILES: CO[C@H]1C[C@@H]2CC[C@@H](C)[C@@](O)(O2)C(=O)C(=O)N2CCCC[C@H]2C(=O)O[C@H]([C@H](C)C[C@@H]2CC[C@@H](OCCO)[C@H](OC)C2)CC(=O)[C@H](C)/C=C(\C)[C@@H](O)[C@@H](OC)C(=O)[C@H](C)C[C@H](C)/C=C/C=C/C=C/1C [everolimus]

SMILES: CCN(CC)CCNC(=O)c1c(C)[nH]c(/C=C2\C(=O)Nc3ccc(F)cc32)c1C [sunitinib]
median PFS [3]: 5.5 months
responses [3]: no responses
